Results reported in patent EP0180500A1, “Thieno and furo[2,3-c]pyrrole derivatives, process for their preparation and medicaments containing them” (LIPHA, LYONNAISE INDUSTRIELLE PHARMACEUTIQUE, priority 1984, dated 1986).

What was measured:
acidité gastrique = assay: Pylorus-ligated rats according to Shay (gastric antisecretory test); details: Rattus norvegicus, ip, 4 h, read-out: DE 50 et limites à 95 %
Source text: Quatre heures plus tard, les animaux sont sacrifiés et le contenu des estomacs prélevé pour mesure de l'acidité. Les composés sont injectés intrapéritonéalement, juste après la ligature du pylore. La dose abaissant l'acidité gastrique de 50 % (DE 50) est calculée pour chaque composé, par rapport à un lot non traité. Chaque composé est testé à 3 doses géamétriquement espacées. Chaque lot comprend 10 rats.

[1] = system: récepteurs histaminiques H2; assay: Histamine-induced gastric hyperacidity in the anaesthetised rat;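 as to all read-outs here: Read-out is the continuously recorded acidity of a saline perfusate flowing through the stomach and collected at the pylorus, with at least 3 rats per dose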; details: for DE 50 et limites à 95 %: dose reducing histamine-induced hyperacidity by 50 %, histamine infusion 25 µg/kg/minute, single i.v. dose, measured at peak action, 95 % limits in brackets; for Puissance relative Ranitidine = 1: relative potency from DE 50 I.V.
Experimental: Hyperacidité gastrique à l'histamine chez le rat anesthésié : (Black et Coll., Nature, 1972, 236, 385) : Des rats anesthésiés à l'éthylurétane reçoivent une perfusion continue d'histamine (25 µg/kg/minute)dans une veine jugulaire. L'estomac est continuellement perfusé par du sérum physiologique à 37°C, sous un débit constant de 3 ml/minute.
Une canule pylorique collecte le perfusat dont l'acidité est mesurée de façon continue. Chaque composé à examiner est administré par la voie intraveineuse (une seule dose par rat).L'inhibition de l'acidité est mesurée au délai correspondant au maximum d'action (délai variable d'un composé à un autre). Un minimum de 3 rats est utilisé pour chaque dose essayée. On détermine, pour chaque composé actif de l'invention, la dose diminuant de 50 % (DE 50), l'hyperacidité induite par l'histamine. On mesure en outre, pour les composés les plus actifs, la durée d'action résultant de l'injection intraveineuse d'une dose unique correspondant à la DE 50 arrondie.

[2] = target: récepteurs histaminiques H2 (Cavia porcellus, UniProt P47747); assay: Isolated guinea-pig atrium (histamine chronotropic effect, H2 blockade)
Chain of récepteurs histaminiques H2 (Cavia porcellus, UniProt P47747) (P47747 whole entry): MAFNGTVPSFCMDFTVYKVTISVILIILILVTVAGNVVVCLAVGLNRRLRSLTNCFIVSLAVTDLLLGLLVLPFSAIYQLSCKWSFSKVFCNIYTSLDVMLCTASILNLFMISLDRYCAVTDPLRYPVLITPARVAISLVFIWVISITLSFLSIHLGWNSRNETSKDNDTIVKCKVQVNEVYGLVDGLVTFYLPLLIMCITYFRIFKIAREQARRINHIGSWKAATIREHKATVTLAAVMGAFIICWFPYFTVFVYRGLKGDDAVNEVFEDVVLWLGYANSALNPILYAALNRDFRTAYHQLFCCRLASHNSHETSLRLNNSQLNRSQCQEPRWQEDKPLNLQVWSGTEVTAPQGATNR
Experimental: Oreillette isolée de cobaye : Des cobayes albinos pesant entre 300 et 400 g sont assomés et saignés. Après ouverture du thorax, l'oreillette droite est rapidement dégagée et placée dans une cuve à organe isolé contenant 100 ml de Krebs (composition en g/1 : NaCl 6,9 - KCl 0,35 - CaCl2 0,28 - Mg SO4 0,14 - NaHCO3 2,09 - KH2 P04 0,16, glucose 2) maintenu à 32°C et fortement oxygéné (95 % 02, 5 % CO2).
L'oreillette est reliée à une jauge de contrainte isométrique, sous une tension de 1 g. Les battements spontanés sont enregistrés sur un enregistreur galvanométrique.
Après une période de stabilisation de 1 heure, des doses cumulées d'histamine sont ajoutées au milieu de survie, toutes les 5 minutes, ce qui occasionne une accélération des battements par stimulation des récepteurs de l'histamine qui, dans les tissus cardiaques sont de nature H2. L'histamine est ajoutée jusqu'à ce que le rythme de l'oreillette n'augmente plus (effet maximum). On peut alors tracer la courbe représentant la variation du rythme en fonction de la concentration d'histamine dans le bain. Après rinçages et repos de 30 minutes, la même expérimentation est reprise 30 minutes après avoir ajouté un antagoniste H2 dans le bain (composé de l'invention ou produit de référence) .
Chaque composé est ainsi testé à 3 concentrations géométriquement croissantes qui provoquent, en cas de blocage des récepteurs H2, un déplacement vers la droite des courbes concentration d'histamine/effet chronotrope. Pour chaque composé actif, nous déterminons un pA2, c'est à dire le cologarithme de la concentration du composé de l'essai pour laquelle il faut doubler la concentration d'histamine afin de retrouver un effet chronotrope donné. […] Un minimum de 3 oreillettes est utilisé pour chaque composé essayé.
Cette préparation permet aussi de se rendre compte de la nature, réversible ou non, de l'inhibition. Dans le premier cas, il sera toujours possible de déplacer l'antagoniste des récepteurs en pratiquant des rinçages répétés ou en utilisant une concentration plus forte d'histamine, ce qui se traduira par des courbes concentration d'histamine/ef- fet chronotrope, parallèles mais supexposables.
Par contre, dans le deuxième cas (inhibition difficilement réversible), l'antagonisme H2 ne peut être complètement levé, ni par rinçages ni par des concentrations élevées d'histamine, ce qui se traduit par des courbes dose/effet non superposables (l'effet chronotrope maximum est de plus en plus faible quand la concentration de l'antagoniste H2 croit).

souris = details: in vivo, iv
Source text: (§1) Les composés de l'invention sont en général très peu toxiques.

rats = details: rat, in vivo, iv
Source text: as §1

| Compound | ED50 (acidité gastrique) | DE 50 et limites à 95 % [1] | Kb [2] | Puissance relative Ranitidine = 1 [1] | effet toxique (souris) | effet toxique (rats) |
| --- | --- | --- | --- | --- | --- | --- |
| CNC(=NC#N)NCCSCc1[nH]cnc1C [Cimétidine, reference compound] | 42 mg/kg | 0,4 (0,18-0,9) mg/kg/I.V. | – | – | – | – |
| CNC(=C[N+](=O)[O-])NCCCOc1cccc2c1CCN(C)C2 [Composé A, N-méthyl N' - [(méthyl-2 tétrahydro-1,2,3,4 isoqwnoléine-5 oxy)-3 propyl] nitro-2 éthène diamine-1,1, reference compound] | > 50 mg/kg | > 5 mg/kg/I.V. | 1320 nM | – | – | – |
| CCN1Cc2cc(CSCCNC(=NC#N)NC)sc2C1 [Exemple 1] | 19 mg/kg | 0,6 (0,25-1,5) mg/kg/I.V. | 105 nM | 0,15 | – | – |
| CCN1Cc2cc(CSCCNC(=C[N+](=O)[O-])NC)sc2C1 [Exemple 3, N-[ [ (Ethyl-5 dihydro-5,6-4H-thiéno [2,3-c]pyrrolyl-2)méthylthio]-2 éthyl]N'-méthyl nitro-2 éthènediamine-1,1] | 8 mg/kg | 0,3 (0,1 -0,9) mg/kg/I.V. | 77.6 nM | 0,3 | – | – |
| CCN1Cc2cc(CSCCC(N)=NS(N)(=O)=O)sc2C1 [Exemple 8, [ (Ethyl-5 dihydro-5,6-4H-thiéno [2,3-c]pyrrolyl-2)méthylthio]-3 N-sulfamoyl propanamidine] | 18 mg/kg | 0,5 (0,18-1,4) mg/kg/I.V. | 129 nM | 0,18 | – | – |
| CCN1Cc2cc(CSCCNc3nc(N)nn3C)sc2C1 [Exemple 11] | – | 0,4 (0,15-1) mg/kg/I.V. | – | 0,22 | – | – |
| CCN1Cc2cc(CSCCNc3n[s+]([O-])nc3N)sc2C1 (centres unmarked) [Exemple 13, N-[ [ (Ethyl-5 dihydro-5,6-4H-thiéno [2,3-c]pyrrolyl-2)méthylthio]-2 éthyl] oxyde-1 thiadiazole [1,2,5,] diamine-3,4] | 1.5 mg/kg | 0,03 (0,02-0,05) mg/kg/I.V. | 20.9 nM | 3 | – | – |
| CCCCCN1Cc2cc(CSCCNC(=C[N+](=O)[O-])NC)sc2C1 [Exemple 18, N-[ [ (Dihydro-5,6 n.pentyl-5-4H-thiéno [2,3-c]pyrrolyl-2)méthylthio]-2 éthyl]N'-méthyl nitro-2 éthène diamine-1,1] | 15 mg/kg | 0,5 (0,17-1,5) mg/kg/I.V. | 89.1 nM | 0,18 | – | – |
| CCN1Cc2sc(CSCCNC(=C[N+](=O)[O-])NC)c(C)c2C1 [Exemple 19] | > 50 mg/kg | > 5 mg/kg/I.V. | 1260 nM | – | – | – |
| CCN1Cc2cc(CSCCNc3n[s+]([O-])nc3NC)sc2C1 (centres unmarked) [Exemple 20, N-[ [ (Ethyl-5 dihydro-5,6-4H-thiéno [2,3-c]pyrrolyl-2)méthylthio]-2 éthyl]N'-méthyl oxyde-1 thiadiazole-[1,2,5] diamine-3,4] | 20 mg/kg | 0,1 (0,03-0,3) mg/kg/I.V. | 42.7 nM | 0,9 | – | – |
| C#CCNc1n[s+]([O-])nc1NCCSCc1cc2c(s1)CN(CC)C2 (centres unmarked) [Exemple 21, N-[ [ (Ethyl-5 dihydro-5,6-4H-thiéno [2,3-c]pyrrolyl-2)méthylthio]-2 éthyl] N'-propargyl oxyde-1 thiadiazole [1,2,5] diamine-3,4] | 32 mg/kg | 0,6 (0,3 -1,2) mg/kg/I.V. | 79.4 nM | 0,15 | – | – |
| CCCN1Cc2cc(CSCCNc3n[s+]([O-])nc3N)sc2C1 (centres unmarked) [Exemple 22] | 0.5 mg/kg | 0,05 (0,02-0,11) mg/kg/I.V. | 17 nM | 1,8 | aucun effet toxique | aucun effet toxique |
| CCCCN1Cc2cc(CSCCNc3n[s+]([O-])nc3N)sc2C1 (centres unmarked) [Exemple 28] | 1 mg/kg | 0,2 (0,08-0,5) mg/kg/I.V. | 42.7 nM | 0,45 | – | – |
| CCCCCCN1Cc2cc(CSCCNc3n[s+]([O-])nc3N)sc2C1 (centres unmarked) [Exemple 30, N-[ [ (n.Hexyl-5 dihydro-5,5-4H-thiéno [2,3-c]pyrrolyl-2)méthylthio]-2 éthyl] oxyde-1 thiadiazole [1,2,5] diamine-3,4] | 0.5 mg/kg | 0,2 (0,07-0,6) mg/kg/I.V. | 64.6 nM | 0,45 | – | – |
| CCCCCN1Cc2cc(CSCCNc3n[s+]([O-])nc3N)sc2C1 (centres unmarked) [Exemple 31] | 3.6 mg/kg | 0,15 (0,07-0,3) mg/kg/I.V. | 30.9 nM | 0,6 | – | – |
| COCCN1Cc2cc(CSCCNc3n[s+]([O-])nc3N)sc2C1 (centres unmarked) [Exemple 33, N-[ [ [Dihydro-5,6 (méthoxy-2 éthyl) -5-4H-thiéno [2,3-c]pyrolyl-2]méthylthio]-2 éthyl] oxyde-1 thiadiazole [1,2,5] diamine-3,4] | 0.7 mg/kg | 0,2 (0,08-0,5) mg/kg/I.V. | 49 nM | 0,45 | – | – |
| CCCN1Cc2cc(CSCCNc3c(N)c(=O)c3=O)sc2C1 [Exemple 34, Amino-3 [ [ (dihydro-5,6 n.propyl-5-4H-thiéno [2,3-c]pyrrolyl-2)méthylthio]-2 éthylamino]-4 cyclobutène dione-1,2] | 11 mg/kg | 0,25 (0,12-0,5) mg/kg/I.V. | 63.1 nM | 0,36 | – | – |
| CNC(=C[N+](=O)[O-])NCCSCc1ccc(CN(C)C)o1 [Ranitidine, reference compound] | 14 mg/kg | 0,09 (0,05-0,17) mg/kg/I.V. | 36.3 nM | 1 | – | – |
| N-Cyano N' -[ [ (dihydro-5,6 isopropyl-5-4H-thiéno [2,3-c] pyrrolyl-2) méthylthio]-2 éthyl] N" méthyl guanidine [Exemple 6] | – | > 5 mg/kg/I.V. | – | – | – | – |
| N-[ [ (Isobutyl-5 dihydro-5,6-4H-thiéno [ 2,3-c ] pyrrolyl-2) méthylthio ]-2 éthyl J oxyde-1 thiadiazole [ 1,2,5 ] diamine-3,4 [Exemple 29] | – | 0,1 (0,04-0,25) mg/kg/I.V. | – | 0,9 | – | – |
